Experiments:
[1] = molecular target: T1, Peroxisome proliferator-activated receptor gamma (Homo sapiens, UniProt P37231); test: Displacement of fluormone-PPARgamma green from GST-tagged PPARgamma-LBD (unknown origin) by fluorescence polarization assay
T1 sequence (P37231 whole entry): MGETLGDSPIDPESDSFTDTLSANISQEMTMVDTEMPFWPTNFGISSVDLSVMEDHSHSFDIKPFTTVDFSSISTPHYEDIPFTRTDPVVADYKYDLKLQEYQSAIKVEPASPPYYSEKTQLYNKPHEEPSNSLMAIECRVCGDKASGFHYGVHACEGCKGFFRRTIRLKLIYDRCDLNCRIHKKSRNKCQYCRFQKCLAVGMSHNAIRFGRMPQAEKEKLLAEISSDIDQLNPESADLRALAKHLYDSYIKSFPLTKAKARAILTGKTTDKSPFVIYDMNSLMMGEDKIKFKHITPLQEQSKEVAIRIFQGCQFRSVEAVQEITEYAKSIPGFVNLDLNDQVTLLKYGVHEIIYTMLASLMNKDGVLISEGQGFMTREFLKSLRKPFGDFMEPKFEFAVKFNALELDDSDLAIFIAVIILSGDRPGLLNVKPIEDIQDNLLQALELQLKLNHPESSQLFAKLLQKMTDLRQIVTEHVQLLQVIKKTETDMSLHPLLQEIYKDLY

[2] = tested on: Rattus norvegicus; test: Antihyperglycemic activity in streptozotocin-induced diabetic Swiss albino rat assessed as decrease in blood glucose level at 20 mg/kg, po measured up to 3 hrs post dose relative to control; format: functional; set-up: scale not given: the % may be the effect or the level left
[3] = Agonist activity at SUR in Wistar rat pancreatic islets assessed as increase in insulin secretion at 5 to 20 uM incubated for 1 hr followed by glucose addition for 30 mins by quantitative sandwich enzyme immunoassay

SMILES | IC50 ([1]; read-out: IC50) [µM] | Activity [2] [%] | EC50 [3] [µM] | IC50 [1]
Cc1nc2ccccc2n(CC(=O)Nc2ccc(S(=O)(=O)NC(=O)Nc3ccccc3)cc2)c1=O | 4 |  |  | 
Cc1nc2ccccc2n(CC(=O)Nc2ccc(S(=O)(=O)NC(=O)NC3CCCCC3)cc2)c1=O | 4 |  |  | 
Cc1nc2ccccc2n(CC(=O)Nc2ccc(S(=O)(=O)NC(=S)NC3CCCCC3)cc2)c1=O | 4 |  |  | 
CCCCNC(=S)NS(=O)(=O)c1ccc(NC(=O)Cn2c(=O)c(C)nc3ccccc32)cc1 | 4 |  |  | 
CCCCNC(=O)NS(=O)(=O)c1ccc(NC(=O)Cn2c(=O)c(C)nc3ccccc32)cc1 | 4 |  |  | 
Cc1nc2ccccc2n(CC(=O)Nc2ccc(S(=O)(=O)NC(=S)Nc3ccccc3)cc2)c1=O | 4 |  |  | 
Cc1nc2ccccc2c(=O)n1CC(=O)Nc1ccc(S(=O)(=O)NC(=O)Nc2ccccc2)cc1 |  | 19.66 |  | 
CCc1nc2ccccc2c(=O)n1CC(=O)Nc1ccc(S(=O)(=O)NC(=O)Nc2ccccc2)cc1 |  | 21.55 |  | 
COc1ccc(-n2c(SCC(=O)Nc3ccc(S(=O)(=O)NC(=O)NC4CCCCC4)cc3)nc3ccccc3c2=O)cc1 | 0.35 | 46.42 | 0.97 | 
CCCCNC(=O)NS(=O)(=O)c1ccc(NC(=O)CSc2nc3ccccc3c(=O)n2-c2ccc(OC)cc2)cc1 | 0.369 | 41.23 | 1.01 | 
Cc1ccc(-n2c(SCC(=O)Nc3ccc(S(=O)(=O)NC(=O)Nc4ccccc4)cc3)nc3ccccc3c2=O)cc1 | 0.371 | 33.42 | 3.09 | 
CCCCNC(=O)NS(=O)(=O)c1ccc(NC(=O)Cn2c(CC)nc3ccccc3c2=O)cc1 | 0.408 | 38.44 | 2.51 | 
Cc1ccc(-n2c(SCC(=O)Nc3ccc(S(=O)(=O)NC(=O)NC4CCCCC4)cc3)nc3ccccc3c2=O)cc1 | 0.402 | 40.43 | 1.31 | 
CCCCNC(=O)NS(=O)(=O)c1ccc(NC(=O)Cn2c(C)nc3ccc(Br)cc3c2=O)cc1 |  | 28.25 |  | 
CCc1nc2ccccc2c(=O)n1CC(=O)Nc1ccc(S(=O)(=O)NC(=O)NC2CCCCC2)cc1 | 0.59 | 34.25 | 1.15 | 
CCCCNC(=O)NS(=O)(=O)c1ccc(NC(=O)Cn2c(C)nc3ccccc3c2=O)cc1 | 0.98 | 29.22 | 2.91 | 
COc1ccc(-n2c(SCC(=O)Nc3ccc(S(=O)(=O)NC(=O)Nc4ccccc4)cc3)nc3ccccc3c2=O)cc1 |  | 24.58 |  | 
CCCCNC(=O)NS(=O)(=O)c1ccc(NC(=O)CSc2nc3ccccc3c(=O)n2-c2ccc(C)cc2)cc1 | 0.434 | 37.76 | 1.53 | 
Cc1nc2ccccc2c(=O)n1CC(=O)Nc1ccc(S(=O)(=O)NC(=O)NC2CCCCC2)cc1 | 0.464 | 38.64 | 2.69 | 

SMILES | IC50 ([1]; read-out: IC50) [µM] | Activity [2] [%] | EC50 [3] [µM] | IC50 [1]
Cc1nc2ccc(Br)cc2c(=O)n1CC(=O)Nc1ccc(S(=O)(=O)NC(=O)Nc2ccccc2)cc1 |  | 21.33 |  | 
Cc1nc2ccc(Br)cc2c(=O)n1CC(=O)Nc1ccc(S(=O)(=O)NC(=O)NC2CCCCC2)cc1 | 0.353 | 42.5 | 1.68 | 
Cc1ccc(NC(=S)NS(=O)(=O)c2ccc(CCNS(=O)(=O)c3ccc(C)cc3)cc2)cc1 |  |  |  | Not Active
Cc1ccc(NC(=S)NS(=O)(=O)c2ccc(CCNS(=O)(=O)c3ccccc3)cc2)cc1 | 50 |  |  | 
COc1ccc(NC(=S)NS(=O)(=O)c2ccc(CCNS(=O)(=O)c3ccccc3)cc2)cc1 | 1000 |  |  | 
O=S(=O)(NCCc1ccc(S(=O)(=O)NC(=S)Nc2ccc(Cl)cc2)cc1)c1ccc(Cl)cc1 | 33.3 |  |  | 
COc1ccc(NC(=S)NS(=O)(=O)c2ccc(CCNS(=O)(=O)c3ccc(Cl)cc3)cc2)cc1 | 33.3 |  |  | 
O=C(NC1CCCCC1)NS(=O)(=O)c1ccc(CCNS(=O)(=O)c2ccccc2)cc1 | 12.5 |  |  | 
CC1CCC(NC(=O)NS(=O)(=O)c2ccc(CCNS(=O)(=O)c3ccc(Br)cc3)cc2)CC1 (configuration not stated) | 1.6 |  |  | 
CC1CCC(NC(=O)NS(=O)(=O)c2ccc(CCNS(=O)(=O)c3ccccc3)cc2)CC1 (configuration not stated) | 3.4 |  |  | 
O=C(NC1CCCCC1)NS(=O)(=O)c1ccc(CCNS(=O)(=O)c2ccc(Cl)cc2)cc1 | 3.1 |  |  | 
O=C(NC1CCCCC1)NS(=O)(=O)c1ccc(CCNS(=O)(=O)c2ccc(Br)cc2)cc1 | 2.39 |  |  | 
CC(=O)Nc1ccc(S(=O)(=O)NCCc2ccc(S(=O)(=O)NC(=O)NC3CCC(C)CC3)cc2)cc1C (configuration not stated) | 2.4 |  |  | 
COc1ccc(NC(=S)NS(=O)(=O)c2ccc(CCNS(=O)(=O)c3ccc(C)cc3)cc2)cc1 |  |  |  | Not Active
Cc1ccc(S(=O)(=O)NCCc2ccc(S(=O)(=O)NC(=S)Nc3ccc(Cl)cc3)cc2)cc1 |  |  |  | Not Active
CC(=O)Nc1ccc(S(=O)(=O)NCCc2ccc(S(=O)(=O)NC(=O)NC3CCC(C)CC3)cc2)cc1 (configuration not stated) | 7.14 |  |  | 
O=S(=O)(NCCc1ccc(S(=O)(=O)NC(=S)Nc2ccc(Cl)cc2)cc1)c1ccccc1 | 33.3 |  |  | 
CCC1=C(C)CN(C(=O)NCCc2ccc(S(=O)(=O)NC(=O)N[C@H]3CC[C@H](C)CC3)cc2)C1=O [GLIMEPIRIDE] |  |  | 0.79 | 
